# In the RepoRT retention time repository:
# Assays:
# Conditions in all cases: stereoisomer not certain
# [1] = RP, Waters ACQUITY UPLC HSS T3, 0.4 mL/min; A: water + 0.01% formic acid; B: 50% water + 50% acetonitrile + 0.01% formic acid; gradient (min/%B) 0/0 0.5/0 9/30 10/50 15/100 16/100 17/0 25/0
# [2] = HILIC, Waters Atlantis Premier BEH Z-HILIC, 100 × 2.1 mm, 1.7 µm, 40 °C, 0.15 mL/min, estimated dead time 1.5 min; A: water + 20 mM ammonium carbonate + 5 µM medronic acid; B: 10% water + 90% acetonitrile + 2 mM ammonium carbonate + 0.5 µM medronic acid; gradient (min/%B) 0/97 18/55 18.1/20 21.5/20 22/97 23.5/97 25.5/97
# [3] = HILIC, Waters Atlantis Premier BEH Z-HILIC, 100 × 2.1 mm, 1.7 µm, 40 °C, 0.15 mL/min, estimated dead time 1.5 min; A: water + 20 mM ammonium carbonate + 5 µM medronic acid; B: 10% water + 90% acetonitrile + 2 mM ammonium carbonate + 0.5 µM medronic acid; gradient (min/%B) 0/95 18/50 18.1/20 21.5/20 22/95 23.5/95 25.5/95
# [4] = RP, Waters ACQUITY UPLC BEH C18, 100 × 2.1 mm, 1.7 µm, 35 °C, 0.3 mL/min, estimated dead time 0.73 min; A: water + 0.1% formic acid, pH 3; B: methanol; gradient (min/%B) 0/10 1.6/10 2/20 6/70 7/70 14/90 17.5/90 18/95 21/95
# [5] = RP, Waters ACQUITY UPLC BEH C18, 100 × 2.1 mm, 1.7 µm, 35 °C, 0.3 mL/min, estimated dead time 0.73 min; A: water + 0.1% formic acid, pH 3; B: methanol; gradient (min/%B) 0/0 1.6/0 2/20 6/70 7/70 14/90 17.5/90 18/95 21/95
# [6] = RP, Waters ACQUITY UPLC BEH C18, 100 × 2.1 mm, 1.7 µm, 35 °C, 0.25 mL/min, estimated dead time 0.88 min; A: water + 0.1% acetic acid, pH 3; B: acetonitrile; gradient (min/%B) 0/10 1/10 2.5/15 4/22 6/38 9/65 12/80 16/100 19/100
LC retention time [1] [min],LC retention time [2] [min],LC retention time [3] [min],Structure (SMILES),other results
,13.8,12.5,C=C(OP(=O)(O)O)C(=O)O [PEP],
,12.9,11.6,O=C(O)C(CO)OP(=O)(O)O (configuration not stated) [Phosphoglyceric acid A],
,10,9.06,O=C(O)CCC(=O)O [Succinic Acid],
,10.7,9.62,O=C(CO)COP(=O)(O)O [Triose phosphate],
4.57,,,Nc1ncnc2c1ncn2C1OC(CO)C(O)C1O (configuration not stated) [adenosine],
,7.17,6.36,CCC(=O)OC(CC(=O)[O-])C[N+](C)(C)C (configuration not stated) [carnitine-C3],
0.92,,,Nc1ccn(C2OC(CO)C(O)C2O)c(=O)n1 (configuration not stated) [cytidine],
4.08,,,Nc1nc2c(ncn2C2OC(CO)C(O)C2O)c(=O)[nH]1 (configuration not stated) [guanosine],
2.04,,,O=c1ccn(C2OC(CO)C(O)C2O)c(=O)[nH]1 (configuration not stated) [uridine],

# Further lines, the molecule ahead of its results:
Structure (SMILES),LC retention time [1] [min],LC retention time [2] [min],LC retention time [3] [min],other results
COC1C(O)C(CO)OC1n1cnc2c(N)ncnc21 (configuration not stated) [2'-O-methyladenosine],5.78,,,
COC1C(O)C(CO)OC1n1cnc2c(=O)[nH]c(N)nc21 (configuration not stated) [2'-O-methylguanosine],5.34,,,
COC1C(c2c[nH]c(=O)[nH]c2=O)OC(CO)C1O (configuration not stated) [2'-O-methylpseudouridine],4.95,,,
COC1C(O)C(CO)OC1n1ccc(=O)[nH]c1=O (configuration not stated) [2'-O-methyluridine],4.79,,,
O=C(O)CCC(=O)C(=O)O [2-Oxoglutaric acid],,9.47,8.54,
O=C(O)CCC(O)C(=O)O (configuration not stated) [2-hydroxy glutaric acid],,10,8.97,
CCCC(=O)OC(CC(=O)[O-])C[N+](C)(C)C (configuration not stated) [Butyrylcarnitine],,,,LC retention time [4]: 2.75 min
O=C(O)CC(O)(CC(=O)O)C(=O)O [Citric acid],,14.1,12.9,
NC(CCC(=O)NC(CS)C(=O)NCC(=O)O)C(=O)O (configuration not stated) [Glutathione],,,,LC retention time [5]: 2 min; LC retention time [4]: 1 min
O=C(O)CC(C(=O)O)C(O)C(=O)O (configuration not stated) [Isocitric acid],,13.9,12.6,
CC(O)C(=O)O (configuration not stated) [Lactic acid],,,,LC retention time [4]: 1.11 min
CC(C)CC(N)C(=O)O (configuration not stated) [Leucine],,,,LC retention time [4]: 1.62 min
CC(=O)NC(Cc1ccccc1)C(=O)O (configuration not stated) [N-acetylphenylalanine],,,,LC retention time [6]: 5 min
CC(C)CC(NC(=O)C(C)O)C(=O)O (configuration not stated) [N-lactoyl-leucine],,,,LC retention time [6]: 5 min
NC(CCC(=O)NC(CSSCC(NC(=O)CCC(N)C(=O)O)C(=O)NCC(=O)O)C(=O)NCC(=O)O)C(=O)O (configuration not stated) [Oxidized glutathione],,,,LC retention time [5]: 3 min; LC retention time [4]: 1.04 min
NC(Cc1ccccc1)C(=O)O (configuration not stated) [Phenylalanine],,,,LC retention time [6]: 2 min
NC(CCC(=O)NC(CSCO)C(=O)NCC(=O)O)C(=O)O (stereo not drawn) [S-(Hydroxymethyl)glutathione],,,,LC retention time [5]: 1.7 min
